Experimental data from paper PMC10061512 (ACS Omega, 2023).
Where “and” joins values, the source holds several entries; their conditions need not be identical. Identical values can stand only once.

Key:
[1] = biological target: EeAChE (Electrophorus electricus, UniProt O42275); test: AChE inhibition and enzyme kinetics, Ellman assay; assay type: biochemical, electric eel; settings: IC50 (μM) ± SD EeAChE, Ellman assay
[2] = biological target: hBACE-1 (Homo sapiens, UniProt P56817); test: biochemical
Chain of hBACE-1 (P56817 46-501): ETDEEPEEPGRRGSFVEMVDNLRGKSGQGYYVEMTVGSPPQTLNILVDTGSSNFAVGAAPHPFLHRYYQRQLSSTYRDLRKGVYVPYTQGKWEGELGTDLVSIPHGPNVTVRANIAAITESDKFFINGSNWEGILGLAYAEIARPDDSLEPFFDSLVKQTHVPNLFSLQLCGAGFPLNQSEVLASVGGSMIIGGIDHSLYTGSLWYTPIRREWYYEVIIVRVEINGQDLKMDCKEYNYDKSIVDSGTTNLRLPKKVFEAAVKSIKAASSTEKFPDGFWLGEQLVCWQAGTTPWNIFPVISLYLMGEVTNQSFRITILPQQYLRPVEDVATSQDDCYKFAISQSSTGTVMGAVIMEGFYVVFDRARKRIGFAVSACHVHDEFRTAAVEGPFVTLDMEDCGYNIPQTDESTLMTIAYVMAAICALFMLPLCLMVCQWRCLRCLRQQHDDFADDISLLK

[3] = biological target: eqBChE (Equus caballus, UniProt P81908); test: BChE inhibition and enzyme kinetics, Ellman assay; assay type: biochemical, equine
Chain of eqBChE (P81908 whole entry): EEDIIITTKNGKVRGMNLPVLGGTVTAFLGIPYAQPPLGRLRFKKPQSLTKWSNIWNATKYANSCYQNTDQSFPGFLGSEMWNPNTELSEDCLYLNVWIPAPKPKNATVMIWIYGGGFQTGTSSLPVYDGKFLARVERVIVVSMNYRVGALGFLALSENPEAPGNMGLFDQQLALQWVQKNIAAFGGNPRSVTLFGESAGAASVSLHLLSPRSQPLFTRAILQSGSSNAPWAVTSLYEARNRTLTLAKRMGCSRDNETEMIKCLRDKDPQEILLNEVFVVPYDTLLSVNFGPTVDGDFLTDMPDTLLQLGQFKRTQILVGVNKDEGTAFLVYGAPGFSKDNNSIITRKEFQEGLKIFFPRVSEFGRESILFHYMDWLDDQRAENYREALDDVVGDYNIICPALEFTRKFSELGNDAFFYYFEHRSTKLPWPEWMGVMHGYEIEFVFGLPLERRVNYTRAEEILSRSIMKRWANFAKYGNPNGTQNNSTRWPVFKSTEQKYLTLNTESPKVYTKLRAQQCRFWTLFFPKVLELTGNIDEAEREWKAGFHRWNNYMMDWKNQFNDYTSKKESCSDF

[4] = biological target: amyloid β 1–42 peptide (Homo sapiens, UniProt P05067); test: Aβ-42 self-aggregation inhibition assay; assay type: biochemical; settings: read-out: inhibition of self-aggregation of Aβ1–42 monomers
Chain of amyloid β 1–42 peptide (P05067 672-713): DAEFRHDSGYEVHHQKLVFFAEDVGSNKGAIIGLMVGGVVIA

Chain of EeAChE (O42275 24-633): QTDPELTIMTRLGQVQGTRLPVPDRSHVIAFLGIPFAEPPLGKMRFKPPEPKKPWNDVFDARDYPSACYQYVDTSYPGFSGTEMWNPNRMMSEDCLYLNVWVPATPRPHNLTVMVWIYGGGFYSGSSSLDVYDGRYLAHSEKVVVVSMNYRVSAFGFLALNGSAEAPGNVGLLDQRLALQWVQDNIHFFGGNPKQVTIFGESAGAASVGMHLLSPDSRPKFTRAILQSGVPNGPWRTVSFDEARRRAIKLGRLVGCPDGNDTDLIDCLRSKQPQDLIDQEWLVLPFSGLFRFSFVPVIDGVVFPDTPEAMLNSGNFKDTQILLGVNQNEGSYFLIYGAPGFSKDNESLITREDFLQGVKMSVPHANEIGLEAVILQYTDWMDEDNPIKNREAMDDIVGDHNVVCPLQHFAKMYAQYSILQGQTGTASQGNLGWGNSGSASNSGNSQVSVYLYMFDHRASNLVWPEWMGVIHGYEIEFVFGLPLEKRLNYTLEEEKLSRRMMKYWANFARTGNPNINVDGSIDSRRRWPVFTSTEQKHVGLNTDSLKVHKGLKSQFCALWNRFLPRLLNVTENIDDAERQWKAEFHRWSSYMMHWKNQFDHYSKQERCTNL

| SMILES | IC50 [1] | IC50 [2] | IC50 [3] | inhibition at 10 µM [4] |
| --- | --- | --- | --- | --- |
| O=c1cc(OCc2cn(Cc3ccccc3F)nn2)c2ccccc2o1 [8e, 4-((1-(2-Fluorobenzyl)-1H-1,2,3-triazol-4-yl)methoxy)-2H-chromen-2-one] | 89.2 ± 1.88 µM | 111.2 ± 0.63 µM | 62.3 ± 1.2 µM |  |
| O=c1ccc2ccc(OCc3cn(Cc4ccccc4C(F)(F)F)nn3)cc2o1 [19c, 7-((1-(2-(Trifluoromethyl)benzyl)-1H-1,2,3-triazol-4-yl)methoxy)-2H-chromen-2-one] | 20.6 ± 0.95 µM | 17.7 ± 0.65 µM | 77.3 ± 6.38 µM |  |
| O=c1cc(OCc2cn(Cc3cccc(F)c3)nn2)c2ccccc2o1 [8f, 4-((1-(3-Fluorobenzyl)-1H-1,2,3-triazol-4-yl)methoxy)-2H-chromen-2-one] | 232.8 ± 2.31 µM | 22.3 ± 1.54 µM | 236 ± 3.6 µM |  |
| CC(=O)c1c(OCc2cn(Cc3ccccc3OC(F)(F)F)nn2)ccc2ccc(=O)oc12 [10d, 8-Acetyl-7-((1-(2-(trifluoromethoxy)benzyl)-1H-1,2,3-triazol-4-yl)methoxy)-2H-chromen-2-one] | 139 ± 1.64 µM | 142 ± 1.59 µM | 170 ± 1.76 µM |  |
| COc1cccc(Cn2cc(COc3cc4oc(=O)cc(C)c4cc3OC)nn2)c1 [16a, 6-Methoxy-7-((1-(3-methoxybenzyl)-1H-1,2,3-triazol-4-yl)methoxy)-4-methyl-2H-chromen-2-one] | 164 ± 1.84 µM | 138.4 ± 1.02 µM | 95.8 ± 1.12 µM |  |
| O=c1ccc2ccc(OCc3cn(Cc4ccccc4OC(F)(F)F)nn3)cc2o1 [19d, 7-((1-(2-(Trifluoromethoxy)benzyl)-1H-1,2,3-triazol-4-yl)methoxy)-2H-chromen-2-one] | 52.54 ± 0.4 µM | 172.8 ± 0.66 µM | 97.2 ± 1.29 µM |  |
| COc1cccc(Cn2cc(COc3ccc4ccc(=O)oc4c3)nn2)c1 [19a, 7-((1-(3-Methoxybenzyl)-1H-1,2,3-triazol-4-yl)methoxy)-2H-chromen-2-one] | 3.6 µM and 3.62 µM | 126 ± 3.92 µM | 2.8 ± 0.22 µM |  |
| O=c1cc(OCc2cn(Cc3c(Cl)cccc3Cl)nn2)c2ccccc2o1 [8d, 4-((1-(2,6-Dichlorobenzyl)-1H-1,2,3-triazol-4-yl)methoxy)-2H-chromen-2-one] | 59.4 ± 2.71 µM | 106 ± 1.38 µM | 40.3 ± 0.93 µM |  |
| O=c1ccc2ccc(O)cc2o1 [compound 17, 7-hydroxycoumarin] |  | 175 ± 4.37 µM |  |  |
| O=c1cc(O)c2ccccc2o1 [compound 5, 4-hydroxycoumarin] | 139 ± 1.85 µM | 169 ± 7.67 µM | 167 ± 5.63 µM |  |
| O=c1cc(OCc2cn(Cc3ccccc3Cl)nn2)c2ccccc2o1 [8b, 4-((1-(2-Chlorobenzyl)-1H-1,2,3-triazol-4-yl)methoxy)-2H-chromen-2-one] | 68.7 ± 0.71 µM | 186.6 ± 1.21 µM | 42.2 ± 0.78 µM |  |
| O=c1cc(OCc2cn(Cc3cccc(Cl)c3)nn2)c2ccccc2o1 [8c, 4-((1-(3-Chlorobenzyl)-1H-1,2,3-triazol-4-yl)methoxy)-2H-chromen-2-one] | 62.6 ± 2.4 µM | 24.8 ± 1.49 µM | 61.9 ± 3.66 µM |  |
| COc1cccc(Cn2cc(COc3ccc4ccc(=O)oc4c3C(C)=O)nn2)c1 [10a, 8-Acetyl-7-((1-(3-methoxybenzyl)-1H-1,2,3-triazol-4-yl)methoxy)-2H-chromen-2-one] | 8.36 ± 1.29 µM | 119 ± 2.49 µM | 7.4 ± 0.94 µM |  |
| Cc1cc(=O)oc2cc(O)c(O)cc12 [compound 11, 4-methyl-6,7-dihydroxycoumarin] | 68.1 ± 4.05 µM | 105 ± 3.48 µM | 148 ± 5.46 µM |  |
| COc1cc(/C=C/C(=O)CC(=O)/C=C/c2ccc(O)c(OC)c2)ccc1O [curcumin, reference compound] |  |  |  | 81% |
| COc1cccc(Cn2cc(COc3cc4oc(=O)cc(C)c4cc3OCc3cn(Cc4cccc(OC)c4)nn3)nn2)c1 [13a, 6,7-Bis((1-(3-methoxybenzyl)-1H-1,2,3-triazol-4-yl)methoxy)-4-methyl-2H-chromen-2-one] | 130.7 ± 0.45 µM | 129 ± 1.49 µM | 51.7 ± 1.42 µM |  |
| O=c1cc(OCc2cn(Cc3ccc(F)cc3)nn2)c2ccccc2o1 [8g, 4-((1-(4-Fluorobenzyl)-1H-1,2,3-triazol-4-yl)methoxy)-2H-chromen-2-one] | 194 ± 2.19 µM | 24.2 ± 1.98 µM | 249 ± 3.1 µM |  |
| O=c1cc(OCc2cn(Cc3ccc(OC(F)(F)F)cc3)nn2)c2ccccc2o1 [8l, 4-((1-(4-(Trifluoromethoxy)benzyl)-1H-1,2,3-triazol-4-yl)methoxy)-2H-chromen-2-one] | 45.4 ± 1.4 µM | 132.9 ± 1.08 µM | 158 ± 1.98 µM |  |
| COc1cc(Cn2cc(COc3cc4oc(=O)cc(C)c4cc3OC)nn2)cc(OC)c1 [16b, 7-((1-(3,5-Dimethoxybenzyl)-1H-1,2,3-triazol-4-yl)methoxy)-6-methoxy-4-methyl-2H-chromen-2-one] | 151 ± 5.05 µM | 9.06 ± 0.88 µM | 191.2 ± 1.13 µM |  |

| SMILES | IC50 [1] | IC50 [2] | IC50 [3] | inhibition at 10 µM [4] |
| --- | --- | --- | --- | --- |
| O=c1cc(OCc2cn(Cc3c(F)cccc3F)nn2)c2ccccc2o1 [8h, 4-((1-(2,6-Difluorobenzyl)-1H-1,2,3-triazol-4-yl)methoxy)-2H-chromen-2-one] | 73.89 ± 0.63 µM | 135 ± 1.9 µM | 66.7 ± 1.37 µM |  |
| COc1cccc(Cn2cc(COc3cc(=O)oc4ccccc34)nn2)c1 [8n, 4-((1-(3-Methoxybenzyl)-1H-1,2,3-triazol-4-yl)methoxy)-2H-chromen-2-one] | 11.4 ± 1.16 µM | 126 ± 4.18 µM | 140 ± 6.25 µM |  |
| O=c1cc(OCc2cn(Cc3ccccc3)nn2)c2ccccc2o1 [8a, 4-((1-Benzyl-1H-1,2,3-triazol-4-yl)methoxy)-2H-chromen-2-one] | 151 ± 3.14 µM | 72.9 ± 2.4 µM | 212 ± 2.55 µM |  |
| COc1cc(Cn2cc(COc3ccc4ccc(=O)oc4c3)nn2)cc(OC)c1 [19b, 7-((1-(3,5-Dimethoxybenzyl)-1H-1,2,3-triazol-4-yl)methoxy)-2H-chromen-2-one] | 59.7 ± 0.62 µM | 132 ± 2.02 µM | 63.2 ± 2.44 µM |  |
| Cc1ccccc1Cn1cc(COc2cc(=O)oc3ccccc23)nn1 [8m, 4-((1-(2-Methylbenzyl)-1H-1,2,3-triazol-4-yl)methoxy)-2H-chromen-2-one] | 210.7 ± 1.83 µM | 162 ± 1.85 µM | 172 ± 1.98 µM |  |
| Cc1cc(=O)oc2cc(OCc3cn(Cc4ccccc4C(F)(F)F)nn3)c(OCc3cn(Cc4ccccc4C(F)(F)F)nn3)cc12 [13c, 4-Methyl-6,7-bis((1-(2-(trifluoromethyl)benzyl)-1H-1,2,3-triazol-4-yl)methoxy)-2H-chromen-2-one] | 154.7 ± 1.42 µM | 139.4 ± 1 µM | 82.5 ± 1.41 µM |  |
| COc1cc(Cn2cc(COc3cc(=O)oc4ccccc34)nn2)cc(OC)c1 [8o, 4-((1-(3,5-Dimethoxybenzyl)-1H-1,2,3-triazol-4-yl)methoxy)-2H-chromen-2-one] | 2.76 ± 0.04 µM | 9.79 ± 1.36 µM | 3.3 ± 0.01 µM |  |
| O=c1cc(OCc2cn(Cc3ccccc3OC(F)(F)F)nn2)c2ccccc2o1 [8k, 4-((1-(2-(Trifluoromethoxy)benzyl)-1H-1,2,3-triazol-4-yl)methoxy)-2H-chromen-2-one] | 9.13 ± 0.73 µM | 18 ± 1.59 µM | 9.95 ± 0.89 µM |  |
| O=c1cc(OCc2cn(Cc3ccc([N+](=O)[O-])cc3)nn2)c2ccccc2o1 [8p, 4-((1-(4-Nitrobenzyl)-1H-1,2,3-triazol-4-yl)methoxy)-2H-chromen-2-one] | 200.4 ± 0.85 µM | 156 ± 1.09 µM | 220 ± 3.04 µM |  |
| O=c1cc(OCc2cn(Cc3ccccc3C(F)(F)F)nn2)c2ccccc2o1 [8i, 4-((1-(2-(Trifluoromethyl)benzyl)-1H-1,2,3-triazol-4-yl)methoxy)-2H-chromen-2-one] | 4.83 ± 0.11 µM | 10.2 ± 0.79 µM | 7.04 ± 0.77 µM |  |
| COc1cc2c(C)cc(=O)oc2cc1OCc1cn(Cc2ccccc2C(F)(F)F)nn1 [16c, 6-Methoxy-4-methyl-7-((1-(2-(trifluoromethyl)benzyl)-1H-1,2,3-triazol-4-yl)methoxy)-2H-chromen-2-one] | 141.7 ± 0.89 µM | 156.1 ± 1.42 µM | 57.5 ± 1.42 µM |  |
| COc1cc(Cn2cc(COc3cc4oc(=O)cc(C)c4cc3OCc3cn(Cc4cc(OC)cc(OC)c4)nn3)nn2)cc(OC)c1 [13b, 6,7-Bis((1-(3,5-dimethoxybenzyl)-1H-1,2,3-triazol-4-yl)methoxy)-4-methyl-2H-chromen-2-one] | 168 ± 6.7 µM | 115 ± 3.86 µM | 4.7 ± 0.67 µM |  |
| Cc1cc(=O)oc2cc(OCc3cn(Cc4ccccc4OC(F)(F)F)nn3)c(OCc3cn(Cc4ccccc4OC(F)(F)F)nn3)cc12 [13d, 4-Methyl-6,7-bis((1-(2-(trifluoromethoxy)benzyl)-1H-1,2,3-triazol-4-yl)methoxy)-2H-chromen-2-one] | 176 ± 10.2 µM | 20.7 ± 0.93 µM |  |  |
| COc1cc2c(C)cc(=O)oc2cc1O [compound 14, 7-Hydroxy-6-methoxy-4-methyl-2H-chromen-2-one] | 89.1 ± 3.51 µM | 91.1 ± 2.41 µM | 146 ± 4.91 µM |  |
| C[n+]1c2ccccc2cc2[n-]c3ccccc3c21 [cryptolepine, reference compound] | 0.33 ± 0.2 µM |  | 0.61 ± 0.3 µM |  |
| O=c1cc(OCc2cn(Cc3ccc(C(F)(F)F)cc3)nn2)c2ccccc2o1 [8j, 4-((1-(4-(Trifluoromethyl)benzyl)-1H-1,2,3-triazol-4-yl)methoxy)-2H-chromen-2-one] | 23.3 ± 2.86 µM | 19.5 ± 0.66 µM | 209 ± 2.11 µM |  |
| COc1cc2c(C)cc(=O)oc2cc1OCc1cn(Cc2ccccc2OC(F)(F)F)nn1 [16d, 6-Methoxy-4-methyl-7-((1-(2-(trifluoromethoxy)benzyl)-1H-1,2,3-triazol-4-yl)methoxy)-2H-chromen-2-one] | 167 ± 2.45 µM | 167.6 ± 1.4 µM | 141 ± 0.6 µM |  |
| CC(=O)c1c(OCc2cn(Cc3ccccc3C(F)(F)F)nn2)ccc2ccc(=O)oc12 [10c, 8-Acetyl-7-((1-(2-(trifluoromethyl)benzyl)-1H-1,2,3-triazol-4-yl)methoxy)-2H-chromen-2-one] | 173 ± 1.89 µM | 139 ± 1.47 µM | 44.6 ± 1.84 µM |  |
